Measured values as given in patent US20180051284A1, “INHIBITORS OF MIR-17-92 CLUSTER FOR ANTI-TUMOR ACTIVITY IN MULTIPLE MYELOMA AND OTHER MALIGNANCIES” (priority 2014, published 2018).
l = locked nucleic acid (LNA); d = 2'-deoxy (DNA)

Tests used:
[1] = tested on: RPMI-8226, KMS-12-BM and NCI-H929 cells; experiment: Cell viability by flow cytometry of 7-AAD stained cells, gapmer versus single miRNA inhibitors; assay type: cell-based, Human; settings: transfection with 25 nM
Experimental: Commercial miRNA inhibitors for miR-17a, miR-18a, miR-19a, miR-19b, miR-20a and miR-92a were purchased from Ambion (Applied Biosystems, Calif., U.S.).
3×10^5 cells were transfected using Neon Transfection System (Invitrogen, Calif.,U.S.), (2 pulses at 1150, 30ms). The transfection efficiency evaluated by flow-cytometric analysis relative to a FAM dye—labeled anti-miR—negative control reached 85% to 90%.
7-aminoactinomycin was used to evaluate cell viability. The staining was performed according to manufacturer's instructions.
To this aim, we transfected three different MM cell lines with 25 nM of either gapmer_06 or miRNA inhibitors from Ambion or RNase free water as control.

[2] = tested on: miR-17-92 primary transcripts and mature miRNA family members; experiment: q-RT-PCR after transfectant reagents-free (gymnotic) exposure; assay type: cell-based, Human; settings: six days gymnotic exposure, 1 and 2,5 μM; two MM cell lines (NCI-H929); vs saline vehicle
Experimental: Cells were seeded at low plating density in order to reach confluence on the final day of the experiments (day 6). Cell number at plating ranged from 0.5 to 2.5×10^3 in 96-well plates, from 2.5 to 10×10^3 in 12-well plates and from 1 to 3×10^4 in 6-well plates.
The LNA/DNA Gapmers were used at concentrations ranging from 0.1 to 20 μM.
Reverse transcription (RT) of both primary and mature miRNAs was performed using TaqMan® MicroRNA Assays, following a procedure for multiplexing the RT step (Life Technologies, Publication Part Number 4465407). Briefly, 500 ng of total RNA, prepared with the TRIzol® Reagent (Invitrogen), underwent reverse transcription by the Taq-Man® MicroRNA RT Kit. In this reaction, the RT primer pool was composed by the individual RT primers for each microRNA belonging to the miR-17-92 cluster and two RT primers to allow the reverse transcription of the miR-17-92 primary miRNA. Real-time PCR was performed using TaqMan® MicroRNA Assays together with the TaqMan® Universal PCR Master Mix on an ViiA7 System (Life Technologies). Both primary and mature microRNAs expressions were relatively quantified using the 2-ΔΔCt method (Applied Biosystems User Bulletin No. 2), and expressed as the relative quantity of target miRNA normalized to the RNU44 (assay ID 001094) housekeeping gene. […] Relative expression was calculated using the comparative cross threshold (Ct) method.

[3] = tested on: PTEN, AKT, ERK, E2F-1, p14/ARF-p53 and intrinsic apoptotic pathway proteins in NCI-H929 cells; experiment: Western blot analysis of molecular perturbations after gymnotic exposure; assay type: cell-based, Human
Experimental: SDS-PAGE and Western Blotting (WB) were performed according to standard protocols. Briefly, cells were lysed by lysis buffer containing 15mM Tris/HCl pH 7.5, 120mM NaCl, 25mM KCI, 1mM EDTA, 0.5% Triton 100, Halt Protease Inhibitor Single-Use cocktail (100X, Thermo Scientific). Whole cells lysates (50 μg per lane) were separated using 4-12% Novex Bis-Tris SDS-acrylamide gels (Invitrogen), electro-transferred on Nitrocellulose membranes (Bio-Rad), and immunoblotted with the antibodies. Membranes were washed 3 times in PBS-Tween and then incubated with a secondary antibody conjugated with horseradish peroxidase in 0.5% milk for 2 hours at room temperature. Chemiluminescence was detected using Western Blotting Luminol Reagent (sc-2048, Santa Cruz, Dallas, Tex., USA). Signal intensity was quantified with the Quantity One Analyzing System (Bio-Rad).
MiRNAs are a class of non coding RNAs that regulate gene expression at post-transcriptional levels. Each miRNA may regulate the expression of several (hundreds) genes. Since LNA/DNA gapmers inhibit the biogenisis of the six members of the miR-17-92 cluster, a wide perturbation in the expression of target genes is predictable. Therefore, we gymnotically exposed NCI-H929 cells for 6 days to gapmer_06 or scrambled controls and, by western blotting, we analyzed molecular perturbations at protein levels.

[4] = tested on: U266 cells; experiment: U266 orthotopic model of human MM (IVIS); assay type: in vivo, mice; settings: I.P. 2 mg/kg at day 1-4-8-15-22; compared to controls
From the text: Male CB-17 severe combined immunodeficient (SCID) mice (6- to 8-weeks old; Harlan Laboratories, Inc., Indianapolis) were housed and monitored in our Animal Research Facility. All experimental procedures and protocols had been approved by the Institutional Ethical Committee (Magna Graecia University) and conducted according to protocols approved by the National Directorate of Veterinary Services (Italy). In accordance with institutional guidelines, mice were sacrificed when tumors reached 2 cm in diameter or in the event of paralysis or major compromise, to prevent unnecessary suffering. […] Mice were also inoculated with 5×10^6 luciferase gene-marked U266, AMO-1, AMO-1/abzb, treatments were performed intraperitoneally (i.p.), and tumor volume were measured by IVIS Lumina II.
The in vivo activity of gapmer_06 was also evaluate in a orthotopic model of human MM using U266 cells, to explore the efficacy in relation to the microenvironment. […] Tumor growth was monitored using IVIS LUMINA II Imaging System. […] Engraftment was determined by sacrificing mice after 10 weeks and analyzing bone marrow for luciferase gene-marked U266 cells. […] Mice were treated I.P. with gapmer_06 at concentration of 2 mg/kg at day 1-4-8-15-22, and serum shulL-6R levels were serially determined as a marker of tumor growth.

[5] = NCI-H929, 6 days gymnotic exposure, 2,5 μM

gapmer_06: LNA/DNA gapmer, SEQ ID 4 (14 mer): +T*+A*+C*T*T*G*C*T*T*G*G*+C*+T*+T; + LNA, * phosphorothioate (antisense TACTTGCTTGGCTT; sugars from the 5' end l3 d8 l3, all phosphorothioate, methylation of C not given here)
biological effect on cell viability (flow cytometry, 7-AAD) compared with single miRNA inhibitors [1]: strongest biological effects
downregulation of primary transcript and mature single miRNAs (q-RT-PCR) [2]: downregulation of primary transcript as well as mature single miRNAs, in a dose dependent manner
E2F-1 protein level (Western Blot) [3, 5]: strongly up-regulated
anti-apoptotic proteins Bcl-2, Mcl-1 (Western Blot) [3, 5]: down-regulation of anti-apoptotic proteins
caspase-3 cleavage (Western Blot) [3, 5]: caspase-3 cleavege
p-AKT and p-ERK (phosphorylated/active forms, Western Blot) [3, 5]: reduction of the phopshorylated / active forms
pro-apoptotic proteins Puma, Bak, Bax, Bid and Bim (Western Blot) [3, 5]: up-regulation of pro-apototic proteins
PTEN protein level (Western Blot) ([3]; NCI-H929, 6 days gymnotic exposure, 2,5 μM, vs scrambled controls): strong up-regulation
p14/ARF-p53 fail-safe axis (Western Blot) ([3]; p53-wild-type NCI-H929, 6 days gymnotic exposure, 2,5 μM): triggers the p14/ARF-p53 fail-safe axis
tumor growth (IVIS) [4]: significant tumor-growth inhibition
